As a reminder, the MIC is the lowest concentration that inhibits growth of the organism.

SMILES strings stand for the structures. Values after ≈ are worked out from the molar mass of the structure shown. Active and inactive are the calls of the source. The rule behind the calls is not given here.

In ChEMBL document CHEMBL1649145, “Interactions between triazoles and amphotericin B in treatment of disseminated murine infection by Fusarium oxysporum” (2009) one finds MIC and Activity data, which are given here for three compounds.

The test system of assay [1] is Fusarium oxysporum. Kind of assay: Antimicrobial activity against Fusarium oxysporum FMR 10281 by microdilution method. The class given is functional. (In general: Dilution methods test growth across graded concentrations, often in twofold steps.)
The subject of assay [2] is Fusarium oxysporum. The assay can be described thus: Antimicrobial activity against 1X 10^7 CFU Fusarium oxysporum FMR 10281 infected in immunosuppressed-OF1 mouse assessed as reduction in spleen fungal burden at 100 mg/kg, po administered 1 day post infection measured on day 6 post dosing. Format: functional, organism-based. The arrangement: dose 100 mg/kg.
Assay [3] relates to Fusarium oxysporum. Kind of assay: Antimicrobial activity against Fusarium oxysporum FMR 5205 by microdilution method. The class given is functional.
Assay [4] concerns Fusarium oxysporum. The assay can be described thus: Antimicrobial activity against 1X 10^7 CFU Fusarium oxysporum FMR 5205 infected in immunosuppressed-OF1 mouse assessed as reduction in spleen fungal burden at 100 mg/kg, po administered 1 day post infection measured on day 6 post dosing. The class given is functional, organism-based. The arrangement: dose 100 mg/kg.
In assay [5] the test system is Fusarium oxysporum. Kind of assay: Antimicrobial activity against 1X 10^7 CFU Fusarium oxysporum FMR 10281 infected in immunosuppressed-OF1 mouse assessed as prolonged survival of mouse at 100 mg/kg, po administered 1 day post infection measured 20 days post […] infection. Format: functional, organism-based. The arrangement: dose 100 mg/kg.
Assay [6] has as its system Fusarium oxysporum. Kind of assay: Antimicrobial activity against 1X 10^7 CFU Fusarium oxysporum FMR 5205 infected in immunosuppressed-OF1 mouse assessed as reduction in kidney fungal burden at 100 mg/kg, po administered 1 day post infection measured on day 6 post dosing. The class given is functional, organism-based. The arrangement: dose 100 mg/kg.
For assay [7], the system named is Fusarium oxysporum. Kind of assay: Antimicrobial activity against 1X 10^7 CFU Fusarium oxysporum FMR 5205 infected in immunosuppressed-OF1 mouse assessed as reduction in spleen fungal burden at 3 mg/kg, ip administered 1 day post infection measured on day 6 post dosing. The arrangement: dose 3 mg/kg. The class given is functional, organism-based.
In assay [8] the test system is Fusarium oxysporum. Kind of assay: Antimicrobial activity against 1X 10^7 CFU Fusarium oxysporum FMR 5205 infected in immunosuppressed-OF1 mouse assessed as reduction in kidney fungal burden at 60 mg/kg, po administered 1 day post infection measured on day 6 post dosing. Format: functional, organism-based. The arrangement: dose 60 mg/kg.
Assay [9] has as its system Fusarium oxysporum. The assay can be described thus: Antimicrobial activity against 1X 10^7 CFU Fusarium oxysporum FMR 10281 infected in immunosuppressed-OF1 mouse assessed as reduction in spleen fungal burden at 3 mg/kg, ip administered 1 day post infection measured on day 6 post dosing. Format: functional, organism-based. The arrangement: dose 3 mg/kg.
For assay [10], the system named is Fusarium oxysporum. Kind of assay: Antimicrobial activity against 1X 10^7 CFU Fusarium oxysporum FMR 10281 infected in immunosuppressed-OF1 mouse assessed as prolonged survival of mouse at 60 mg/kg, po administered 1 day post infection measured 20 days post […] infection. Format: functional, organism-based. The arrangement: dose 60 mg/kg.
The subject of assay [11] is Fusarium oxysporum. Kind of assay: Antimicrobial activity against Fusarium oxysporum FMR 10281 by microdilution method in presence of voriconazole. Format: functional.
The test system of assay [12] is Fusarium oxysporum. The assay can be described thus: Antimicrobial activity against Fusarium oxysporum FMR 5205 by microdilution method in presence of posaconazole. Format: functional.
Assay [13] has as its system Fusarium oxysporum. Kind of assay: Antimicrobial activity against 1X 10^7 CFU Fusarium oxysporum FMR 10281 infected in immunosuppressed-OF1 mouse assessed as prolonged survival of mouse at 3 mg/kg, ip administered 1 day post infection measured 20 days post […] infection. Format: functional, organism-based. The arrangement: dose 3 mg/kg.
The subject of assay [14] is Fusarium oxysporum. The assay can be described thus: Antimicrobial activity against Fusarium oxysporum FMR 5205 by microdilution method in presence of voriconazole. Format: functional.
Assay [15] concerns Fusarium oxysporum. The assay can be described thus: Antimicrobial activity against Fusarium oxysporum FMR 10281 by microdilution method in presence of posaconazole. Format: functional.

For `CC[C@@H]([C@H](C)O)n1ncn(-c2ccc(N3CCN(c4ccc(OC[C@@H]5CO[C@@](Cn6cncn6)(c6ccc(F)cc6F)C5)cc4)CC3)cc2)c1=O` [POSACONAZOLE], the MIC is greater than 16 µg/mL in [1] and 2 µg/mL (≈ 2.85 µM) in assay [3]. Further, the outcome in assay [2], in [4], in assay [5] and in assay [6] was Active.
`C[C@@H](c1ncncc1F)[C@](O)(Cn1cncn1)c1ccc(F)cc1F` [VORICONAZOLE]: the MIC in assay [1] stood at 16 µg/mL (≈ 45.8 µM); in [3], 4 µg/mL (≈ 11.5 µM). The outcome in [7], in assay [8] and in [9] was Active. Also, the outcome in assay [10] was inactive.
As for `C[C@@H]1[C@H](O)[C@@H](C)/C=C/C=C/C=C/C=C/C=C/C=C/C=C/[C@H](O[C@@H]2O[C@H](C)[C@@H](O)[C@H](N)[C@@H]2O)C[C@@H]2O[C@](O)(C[C@@H](O)C[C@@H](O)[C@H](O)CC[C@@H](O)C[C@@H](O)CC(=O)O[C@H]1C)C[C@H](O)[C@H]2C(=O)O` [AMPHOTERICIN B], the MIC in assay [11] came to 4 µg/mL; in assay [12], 2 µg/mL; in [1], 4 µg/mL (≈ 4.33 µM); in assay [3] it was 2 µg/mL (≈ 2.16 µM); in assay [14], 2 µg/mL; in [15], 4 µg/mL. In addition, in assay [13], the outcome was inactive.
